From publication PMC10686834, “Targeting myeloid chemotaxis to reverse prostate cancer therapy resistance” (Nature, 2023)
Like-named read-outs stand apart in the source and are kept apart here.

How the values were obtained:
[1] = system: CYP2C19; parameters: method as in AZD5069 Investigator Brochure (IB); conditions: at concentrations of up to 100 μmol/L; ref AZD5069 Investigator Brochure (IB); cited from earlier work
[2] = system: CYP2B6; parameters: method as in AZD5069 Investigator Brochure (IB); conditions: at concentrations of up to 100 μmol/L; ref AZD5069 Investigator Brochure (IB); cited from earlier work
[3] = system: CACO-2 cells; parameters: method as in AZD5069 Investigator Brochure (IB); conditions: at 0.85 μmol/L, ref AZD5069 Investigator Brochure (IB); cited from earlier work
[4] = system: rat; conditions: in vivo; cited from earlier work
[5] = system: CYP3A4; parameters: method as in AZD5069 Investigator Brochure (IB); conditions: at concentrations of up to 100 μmol/L; ref AZD5069 Investigator Brochure (IB); cited from earlier work
[6] = system: patients with chronic obstructive pulmonary disease (COPD); conditions: cited from earlier work
[7] = system: patients with persistent uncontrolled asthma; parameters: method as in AZD5069 Investigator Brochure (IB); conditions: asthma study NCT01704495, 161 patients receiving 45 mg BD, 6-month safety analysis set; ref AZD5069 Investigator Brochure (IB); cited from earlier work
[8] = system: P-glycoprotein (P-gp; MDR1) transporter mRNA; parameters: method as in AZD5069 Investigator Brochure (IB); conditions: human hepatocytes; ref AZD5069 Investigator Brochure (IB); cited from earlier work
[9] = system: CD11b+HLA-DRloCD15+CD14− myeloid cells; test: Hyperplex IF of paired pre- and on-treatment mCRPC biopsies: intratumour immune cell density; assay type: in vivo, human
Description: Specific pharmacokinetic collection time points are listed in the study protocol. Pharmacokinetic parameters were calculated using non-compartmental analysis (Phoenix v.8.1, Certara). Fresh tumour needle core biopsies from matched disease sites (lymph node, bone and soft tissue) were collected at baseline (within 1 week of treatment commencement) and approximately 2 weeks after starting AZD5069 in patients when this was deemed safe and feasible. Tumour biopsies were obtained from 18 patients under computerized tomography or ultrasound guidance by an experienced interventional radiologist (N.T.). […] One patient had only a baseline tumour biopsy. Two patients underwent on-treatment biopsies after 4 weeks. Immediately after biopsy, tumour samples were immersed in 10% neutral-buffered formalin for 24 hours. Samples were processed through paraffin wax for histologic examination. […] Baseline FFPE samples were analysed by IHC, and pre- and post-treatment FFPE biopsies were analysed by IF and targeted RNA profiling using HTG EdgeSeq. […]
The hyperplex IF protocol template was generated using the COMET Control Software (v.0.70.0.1, Lunaphore Technologies), and reagents were loaded onto the device to carry out the sequential IF (seqIF) protocol. […] Nuclear signal was detected with DAPI (No. 62248, dilution 1:1,000, Thermo Fisher Scientific) by dynamic incubation of 2 min. […]

C[C@@H](Oc1cc(NS(=O)(=O)N2CCC2)nc(SCc2cccc(F)c2F)n1)[C@@H](O)CO [AZD5069]
inhibition of CYP2C19 [1]: not an inhibitor | inhibition of CYP2B6 [2]: not an inhibitor | efflux ratio [3]: 57 | tolerated single doses [4]: up to 600 mg/kg | inhibition of CYP3A4 [5]: not an inhibitor | adverse events (AEs) ([6]; 50mg AZD5069, ref (18)): 33% | treatment discontinuation for decrease in neutrophils (<1.0 × 10^9/L in two blood samples, 24 hours apart) ([6]; 50mg AZD5069, ref (18)): 10% | adverse events (AEs) ([6]; 80mg AZD5069, ref (18)): 21% | treatment discontinuation for decrease in neutrophils (<1.0 × 10^9/L in two blood samples, 24 hours apart) ([6]; 80mg AZD5069, ref (18)): 4% | AEs leading to discontinuation of treatment ([6]; AZD5069 50 mg group, ref (18)): 17% | patients discontinued from the study due to decreased neutrophil count ([6]; AZD5069 50 mg group, ref (18)): 3 | AEs leading to discontinuation of treatment ([6]; AZD5069 80 mg group, ref (18)): 7% | average decrease of blood neutrophil counts from baseline ([6]; AZD5069 80 mg group, ref (18)): 13-36% | patients discontinued from the study due to decreased neutrophil count ([6]; AZD5069 80 mg group, ref (18)): 1 | patients who discontinued the drug due to neutrophil counts 1x10^9/L [7]: 4 | induction of P-glycoprotein (P-gp; MDR1) transporter mRNA [8]: concentration dependent induction | density of other immune cells in CRPC biopsies [9]: did not significantly alter the density of other immune cells | density of CD11b+HLA-DRloCD15+CD14− myeloid cells in CRPC biopsies ([9]; most patients treated with AZD5069 >40 mg BD, approximately 2 weeks after starting treatment): reduced the density
